Organism: Rattus norvegicus
Assay: Open TG-GATES - Regimen: Single
Type: toxicity, organism-based, Sprague-Dawley
Parameters: regimen Single, gender Male, age 6 weeks
Details: in vivo, po, route gavage; for gamma-GTP / ALP / ALT / AST / BUN / CRE / Ca / Cl / DBIL / GLC / IP / K / LDH / Na / PL / RALB / TBIL / TC / TG / TP: tissue Plasma; for APTT / Bas / Eos / Fbg / Hb / Ht / Lym / MCH / MCHC / MCV / Mono / Neu / PT / Plat / RBC / Ret: tissue Blood; for KIDNEY_L / KIDNEY_R / KIDNEY_TOTAL: tissue Kidney; for LIVER: tissue Liver
[1] = 1000 mg/kg, 3 h, dose level High
[2] = 1000 mg/kg, 6 h, dose level High
[3] = 1000 mg/kg, 9 h, dose level High
[4] = 1000 mg/kg, 24 h, dose level High

Question: How did the gamma-GTP (300 mg/kg, 24 h, dose level Middle) turn out when COc1ccc2[nH]c([S+]([O-])Cc3ncc(C)c(OC)c3C)nc2c1 (centres undefined) [OMEPRAZOLE] was run?
Answer: 1 IU/L

Question: And the TERMINAL_BW [1]?
Answer: 220.8 g

Question: And the APTT [1]?
Answer: 18.6 s

Question: And the Bas [1]?
Answer: 0%

Question: And the Eos [1]?
Answer: 1%

Question: What about the Fbg [1] of the same compound?
Answer: 201.8 mg/dL

Question: And the Hb [1]?
Answer: 12.4 g/dL

Question: What about the Ht [1] of the same compound?
Answer: 36.3%

Question: What about the Lym [1] of the same compound?
Answer: 74.8%

Question: And the MCH [1]?
Answer: 21.2 pg

Question: What about the MCHC [1] of the same compound?
Answer: 34.3%

Question: What about the MCV [1] of the same compound?
Answer: 61.9 fL

Question: What about the Mono [1] of the same compound?
Answer: 3%

Question: What about the Neu [1] of the same compound?
Answer: 21%

Question: What about the PT [1] of the same compound?
Answer: 13.3 s

Question: And the Plat [1]?
Answer: 120.5 x10_4/uL

Question: And the RBC [1]?
Answer: 586.6 x10_4/ul

Question: And the Ret [1]?
Answer: 6.8%

Question: What about the KIDNEY_L [1] of the same compound?
Answer: 1 g

Question: What about the KIDNEY_R [1] of the same compound?
Answer: 1 g

Question: What about the KIDNEY_TOTAL [1] of the same compound?
Answer: 2 g

Question: What about the LIVER [1] of the same compound?
Answer: 9.8 g

Question: And the ALP [1]?
Answer: 966.6 IU/L

Question: And the ALT [1]?
Answer: 31.6 IU/L

Question: What about the AST [1] of the same compound?
Answer: 66 IU/L

Question: What about the BUN [1] of the same compound?
Answer: 11.2 mg/dL

Question: And the CRE [1]?
Answer: 0.4 mg/dL

Question: What about the Ca [1] of the same compound?
Answer: 10.2 mg/dL

Question: What about the Cl [1] of the same compound?
Answer: 100.6 meq/L

Question: And the DBIL [1]?
Answer: 0.072 mg/dL

Question: And the GLC [1]?
Answer: 208.8 mg/dL

Question: What about the IP [1] of the same compound?
Answer: 9.2 mg/dL

Question: What about the K [1] of the same compound?
Answer: 4 meq/L

Question: What about the LDH [1] of the same compound?
Answer: 174.6 IU/L

Question: What about the Na [1] of the same compound?
Answer: 140 meq/L

Question: What about the PL [1] of the same compound?
Answer: 140.8 mg/dL

Question: And the RALB [1]?
Answer: 3.3 g/dL

Question: What about the TBIL [1] of the same compound?
Answer: 0.1 mg/dL

Question: What about the TC [1] of the same compound?
Answer: 73.4 mg/dL

Question: What about the TG [1] of the same compound?
Answer: 56.8 mg/dL

Question: What about the TP [1] of the same compound?
Answer: 5.4 g/dL

Question: And the gamma-GTP [1]?
Answer: 0.8 IU/L

Question: And the TERMINAL_BW [2]?
Answer: 221 g

Question: And the APTT [2]?
Answer: 19.3 s

Question: What about the Bas [2] of the same compound?
Answer: 0%

Question: And the Eos [2]?
Answer: 1.2%

Question: What about the Fbg [2] of the same compound?
Answer: 208.8 mg/dL

Question: What about the Hb [2] of the same compound?
Answer: 12.9 g/dL

Question: What about the Ht [2] of the same compound?
Answer: 37.2%

Question: And the Lym [2]?
Answer: 70.6%

Question: And the MCH [2]?
Answer: 21.5 pg

Question: And the MCHC [2]?
Answer: 34.9%

Question: And the MCV [2]?
Answer: 61.8 fL

Question: What about the Mono [2] of the same compound?
Answer: 4.4%

Question: And the Neu [2]?
Answer: 23.2%

Question: What about the PT [2] of the same compound?
Answer: 13.2 s

Question: What about the Plat [2] of the same compound?
Answer: 129.9 x10_4/uL

Question: And the RBC [2]?
Answer: 602.4 x10_4/ul

Question: And the Ret [2]?
Answer: 7.1%

Question: And the KIDNEY_L [2]?
Answer: 1 g

Question: What about the KIDNEY_R [2] of the same compound?
Answer: 1.1 g

Question: What about the KIDNEY_TOTAL [2] of the same compound?
Answer: 2.1 g

Question: What about the LIVER [2] of the same compound?
Answer: 9.8 g

Question: And the ALP [2]?
Answer: 940.2 IU/L

Question: What about the ALT [2] of the same compound?
Answer: 27 IU/L

Question: What about the AST [2] of the same compound?
Answer: 65.6 IU/L

Question: And the BUN [2]?
Answer: 10 mg/dL

Question: And the CRE [2]?
Answer: 0.4 mg/dL

Question: And the Ca [2]?
Answer: 10.2 mg/dL

Question: And the Cl [2]?
Answer: 100.8 meq/L

Question: What about the DBIL [2] of the same compound?
Answer: 0.072 mg/dL

Question: What about the GLC [2] of the same compound?
Answer: 192.2 mg/dL

Question: And the IP [2]?
Answer: 9.7 mg/dL

Question: And the K [2]?
Answer: 4 meq/L

Question: And the LDH [2]?
Answer: 178.8 IU/L

Question: What about the Na [2] of the same compound?
Answer: 139.8 meq/L

Question: What about the PL [2] of the same compound?
Answer: 145.8 mg/dL

Question: And the RALB [2]?
Answer: 3.3 g/dL

Question: What about the TBIL [2] of the same compound?
Answer: 0.1 mg/dL

Question: And the TC [2]?
Answer: 78.8 mg/dL

Question: And the TG [2]?
Answer: 57 mg/dL

Question: What about the TP [2] of the same compound?
Answer: 5.5 g/dL

Question: And the gamma-GTP [2]?
Answer: 1.2 IU/L

Question: What about the TERMINAL_BW [3] of the same compound?
Answer: 219.2 g

Question: And the APTT [3]?
Answer: 18.3 s

Question: What about the Bas [3] of the same compound?
Answer: 0%

Question: And the Eos [3]?
Answer: 1%

Question: And the Fbg [3]?
Answer: 228.6 mg/dL

Question: What about the Hb [3] of the same compound?
Answer: 12.8 g/dL

Question: What about the Ht [3] of the same compound?
Answer: 37.1%

Question: What about the Lym [3] of the same compound?
Answer: 75.8%

Question: And the MCH [3]?
Answer: 21.3 pg

Question: What about the MCHC [3] of the same compound?
Answer: 34.6%

Question: And the MCV [3]?
Answer: 61.4 fL

Question: And the Mono [3]?
Answer: 3.4%

Question: What about the Neu [3] of the same compound?
Answer: 19%

Question: And the PT [3]?
Answer: 12.9 s

Question: What about the Plat [3] of the same compound?
Answer: 120.2 x10_4/uL

Question: And the RBC [3]?
Answer: 603.8 x10_4/ul

Question: What about the Ret [3] of the same compound?
Answer: 6.4%

Question: And the KIDNEY_L [3]?
Answer: 1 g

Question: And the KIDNEY_R [3]?
Answer: 1 g

Question: What about the KIDNEY_TOTAL [3] of the same compound?
Answer: 1.9 g

Question: And the LIVER [3]?
Answer: 9.6 g

Question: What about the ALP [3] of the same compound?
Answer: 705 IU/L

Question: And the AST [3]?
Answer: 62 IU/L

Question: And the BUN [3]?
Answer: 8 mg/dL

Question: And the CRE [3]?
Answer: 0.3 mg/dL

Question: And the Ca [3]?
Answer: 10.2 mg/dL

Question: What about the Cl [3] of the same compound?
Answer: 100.8 meq/L

Question: What about the DBIL [3] of the same compound?
Answer: 0.08 mg/dL

Question: And the GLC [3]?
Answer: 195.2 mg/dL

Question: And the IP [3]?
Answer: 10 mg/dL

Question: What about the K [3] of the same compound?
Answer: 3.8 meq/L

Question: What about the LDH [3] of the same compound?
Answer: 174.4 IU/L

Question: And the Na [3]?
Answer: 141 meq/L

Question: What about the PL [3] of the same compound?
Answer: 153.2 mg/dL

Question: What about the RALB [3] of the same compound?
Answer: 3.5 g/dL

Question: And the TBIL [3]?
Answer: 0.1 mg/dL

Question: What about the TC [3] of the same compound?
Answer: 80.4 mg/dL

Question: And the TG [3]?
Answer: 59.8 mg/dL

Question: And the TP [3]?
Answer: 5.5 g/dL

Question: And the gamma-GTP [3]?
Answer: 0.6 IU/L

Question: And the TERMINAL_BW [4]?
Answer: 226 g

Question: What about the APTT [4] of the same compound?
Answer: 19.9 s

Question: And the Bas [4]?
Answer: 0%

Question: And the Eos [4]?
Answer: 1%

Question: And the Fbg [4]?
Answer: 207.8 mg/dL

Question: What about the Hb [4] of the same compound?
Answer: 12.9 g/dL

Question: What about the Ht [4] of the same compound?
Answer: 37.7%

Question: And the Lym [4]?
Answer: 81.4%

Question: What about the MCH [4] of the same compound?
Answer: 21 pg

Question: And the MCHC [4]?
Answer: 34.1%

Question: And the MCV [4]?
Answer: 61.6 fL

Question: And the Mono [4]?
Answer: 4%

Question: What about the Neu [4] of the same compound?
Answer: 13.4%

Question: What about the PT [4] of the same compound?
Answer: 13.1 s

Question: What about the Plat [4] of the same compound?
Answer: 129.5 x10_4/uL

Question: And the RBC [4]?
Answer: 613.8 x10_4/ul

Question: What about the Ret [4] of the same compound?
Answer: 6.2%

Question: What about the KIDNEY_L [4] of the same compound?
Answer: 1 g

Question: What about the KIDNEY_R [4] of the same compound?
Answer: 1 g

Question: What about the KIDNEY_TOTAL [4] of the same compound?
Answer: 2.1 g

Question: And the LIVER [4]?
Answer: 12.1 g

Question: What about the ALP [4] of the same compound?
Answer: 924 IU/L

Question: And the ALT [4]?
Answer: 32.6 IU/L

Question: And the AST [4]?
Answer: 64.8 IU/L

Question: What about the BUN [4] of the same compound?
Answer: 11.2 mg/dL

Question: And the CRE [4]?
Answer: 0.4 mg/dL

Question: And the Ca [4]?
Answer: 10.1 mg/dL

Question: What about the Cl [4] of the same compound?
Answer: 100.6 meq/L

Question: What about the DBIL [4] of the same compound?
Answer: 0.1 mg/dL

Question: And the GLC [4]?
Answer: 200.4 mg/dL

Question: What about the IP [4] of the same compound?
Answer: 9.2 mg/dL

Question: And the K [4]?
Answer: 4.2 meq/L

Question: And the LDH [4]?
Answer: 230 IU/L

Question: What about the Na [4] of the same compound?
Answer: 140.6 meq/L

Question: And the PL [4]?
Answer: 162.8 mg/dL

Question: And the RALB [4]?
Answer: 3.4 g/dL

Question: What about the TBIL [4] of the same compound?
Answer: 0.2 mg/dL

Question: What about the TC [4] of the same compound?
Answer: 83.4 mg/dL

Question: And the TG [4]?
Answer: 169.2 mg/dL

Question: And the TP [4]?
Answer: 5.4 g/dL

Question: What about the gamma-GTP [4] of the same compound?
Answer: 1 IU/L

Reference: ChEMBL document CHEMBL3885861, “Open TG-GATES”
